Structures can show the parent of a compound that is named as a salt. Where two headings read alike, the source gives them in different places.

The record followed here is US5219867A, “Platelet aggregation inhibitory agents” (priority 1992, dated 1993).

The experiment deals with cytosolic ionized calcium in human platelets. Description: Inhibition of collagen-induced rise in cytosolic ionized calcium (aequorin luminescence). It counts as cell-based. As to conditions: for IC50: 1mM [Ca2+]o (n = 4), read-out: Ica50 ± S.E. Collagen-induced (50% inhibition of collagen-induced rise in cytosolic ionized calcium). As to the method: Procedure for Cytosolic Ionized Calcium Determination. The basic procedure of Yamaguchi, et al. (Thromb. Res., Vol. 44, Pages 165-174, 1986) was followed. Blood was collected from six blood donors, aged 24-38 years, who had fasted overnight and affirmed abstinence from alcohol, caffeine and medications of any kind for a period of at least one week prior to donation. […] Platelets were collected (800 g, 15 min), resuspended in and washed (800 g, 15 min) with HEPES-buffered saline (140 mM NaCl, 2.7 mM KCl, 0.1% bovine albumin, 0.5% glucose, 3.8 mM HEPES, pH 7.6) with EGTA (5 mM) and PGE1 (1 μM). The platelet pellet was resuspended in 90 μl of the same buffer and added to 20μl of 3 mg/ml aequorin solution in a 1.5 ml Eppendorf centrifuge tube. Six 1 μl aliquots of DMSO were added at 90 second intervals with brief, gentle mixing on a Vortex mixer and the platelet suspension was incubated 2 minutes after the last addition. One ml of HEPES-buffered saline was added, gently mixed, and again incubated for 2 minutes. The platelets were pelleted (1000 g, 30 sec), resuspended in HEPES-buffered saline to which was added either 1 mM Mg Cl2, (calcium-free buffer) or 1 mM Mg Cl2 and 1 mM Ca Cl2 (calcium buffer), depending on the experiment. The platelet count was adjusted to 3-4×10^5 platelets/μl.
The Platelet Ionized Calcium Aggregometer (Chrono-Log Corp., Ltd., Havertown, Pa.) was used to obtain simultaneous aggregation and luminescence data under the following experimental conditions: (1) platelet suspension, 1 ml, was equilibrated at 37° C. with stirring at 1100 rpm; (2) 100 μl (1.2 μg) of fibrinogen was added; (3) the vehicle (95% ethanol) or the test compound in vehicle was added; (4) when needed, 10 μl of the desired concentration of EGTA was added 30 seconds prior to addition of the agonist; then (5) the agonist (Collagen, 5 μg or 20 μg) was added and the time noted. At one minute after addition of the agonist in Channel 1, a platelet sample containing fibrinogen in Channel 2 was lysed with 10 μl of a 1:1 solution of Triton X-100 (final concentration 0.005%) 10 mM CaCl2 (final concentration 0.5 mM). Treated and control […] data were corrected for time dependent decay of fluorescence using data from the untreated lysed controls.
Normally 4 compound-treated samples (at 4 different concentrations) interspersed with 3 control samples were evaluated at 4.5 minute intervals starting 18-23 minutes after the DMSO treatment. The Ia50 values were calculated as described earlier. The compound concentrations effecting 50% inhibition (Ica50) of collagen-induced cytosolic ionized calcium values was determined by linear regression analysis.
Compounds I-rac, (+)-I,(IC) and (-)-I(IA) were evaluated. The Ia50 (collagen-induced aggregation) and Ica50 (compound concentration required to inhibit by 50% the collagen-induced rise in cytosolic ionized calcium)values determined with platelet suspensions in HEPES-buffered saline containing 1.0 mM CaCl2 were as follows:
Collagen-stimulation of platelets suspended in media containing 1.0 mM of Ca^2+ (FIG. 13) or 1.0 mM (FIG. 14A) or 2.0 mM (FIG. 14B) EGTA (a calcium chelator) gave […] cytosolic ionized calcium peak (aequorin-indicated luminescence). Contrarily, two phases of Ca^2+ mobilization were observed when aequorin-loaded human platelets suspended in a medium containing 0.1 mM EGTA were stimulated with collagen (FIG. 14, designation D). The first corresponded to platelet shape change and the second peak to aggregation. […] The platelet suspension (1.0 ml) was pre-incubated with 1.0 μl of (A) 95% ethanol, (B) a solution of Compound I (14.59 μM) in 95% ethanol, or (C) a solution of Compound I (23.87 μM) in 95% ethanol. Collagen (20 μg) was added at time indicated by the arrows. Luminescence was again recorded at a gain of 0.5. […] Accordingly, the stereo-selective inhibitory properties of the compounds of the present invention appear to be mediated through the inhibition of [Ca^2+ ].

For the compound `CCN(CC)C(=O)C1CCCN(Cc2ccc(CN3CCCC(C(=O)N(CC)CC)C3)cc2)C1` (racemic) [Compound I, α-α'-Bis[3-(N,N-diethyl-carbamoyl)piperidino]-p-xylene dihydrobromide], the “Effect on platelet shape change peak and aggregation peak of Ca2+ mobilization” value (0.1 mM EGTA, collagen 20 μg, Compound I 14.59 μM or 23.87 μM (FIG. 15)) was “inhibited both the platelet shape change peak and the aggregation peak”. For the same compound, under “Homo sapiens, Platelet, collagen-induced”, the IC50 was found to be 21.2 µM.

With `CCN(CC)C(=O)C1CCCN(Cc2ccc(CN3CCCC(C(=O)N(CC)CC)C3)cc2)C1` (single isomer, unassigned) [IC, α-α'-Bis(3-N,N-diethylcarbamoyl)piperidino]-p-xylene dihydrobromide], the IC50 (collagen-induced, listed as IC (+)-I, dihydrobromide) amounted to 3.6 ± 1.2 µM. The “Potency in inhibiting the rise of cytosolic ionized calcium compared to racemic I, I-A and IB” value (collagen-induced, Ca2+-containing medium) is given as “much more potent”.
